Data on five compounds can be found in patent US10238623B2, “C14-hydroxyl esterified amino acid derivative of triptolide, and preparation method and use thereof” (HANGZHOU WEBEN PHARMACEUTICALS INC, priority 2015, dated 2019).

Values joined by “and” are separate entries in the source; they are usually repeats but may differ in a detail not shown here. Identical values can stand only once.

Broadly, the IC50 is the midpoint of a concentration-inhibition curve. A lower IC50 goes with inhibition by little substance.

Data set [1] concerns human chronic myelogenous leukemia K562/ADR cells. Put plainly: K562/ADR subcutaneous xenograft in NOD/SCID mice. The data set is classed as in vivo. The settings on record: for growth of K562/ADR cells in mice in vivo (in words): K562/ADR xenograft, intragastric 2 times a day, dose-dependent effect; for Tumor volume: K562/ADR. As to the method: (§1) 7-week old female NOD/SCID mice were taken and inoculated subcutaneously with 1×10^7 cells (0.2 ml) per mouse in axilla, with human K562/ADR cells on the left. When tumors grew to a tumor size of around 50-100 mm^3, the mice were randomized into groups with 3 mice each. An equivalent amount of PBS was used for the control group, and the TPL-DDV group was divided into two groups with 0.23 mg/kg body weight and 0.46 mg/kg body weight: intragastric administration, 2 times a day (one at 8 a.m. and one at 4 p.m.) for consecutive 14 days of treatment. An observation was made for total 30 days, during which the conditions of the mice such as tumor size, weight, activity, diet, and the like were measured. At the end of the experiment, the mice were sacrificed, tumor tissues were taken and the tumors were weighed, and major organs and tissues of the mice such as liver, spleen, heart, lung, large intestine, small intestine, and the like were examined.
as §1, with “TPL-LV” for “TPL-DDV”, “0.2” for “0.23”, “0.4” for “0.46”

Data set [2] is described as follows: Body weight and organ examination of tumour-bearing mice. The format is in vivo, NOD/SCID mice. The following applies: 14 days, individual mice. As to the method: (§2) 7-week old female NOD/SCID mice were taken and inoculated subcutaneously with 1×10^7 cells (0.2 ml) per mouse in axilla, with human acute myelogenous leukemia KG-1a cells on the left and human acute monocytic leukemia THP-1 cells on the right. When tumors grew to a tumor size of around 0.5 cm, the mice were randomized into groups with 3 mice each. An equivalent amount of PBS was used for the control group, and the 14-D-Valine-TPL group was divided into two groups with 0.2 mg/kg body weight and 0.4 mg/kg body weight: intragastric administration 2 times a day (one at 8 a.m. and one at 4 p.m.) for consecutive 14 days of treatment. An observation was made for total 30 days, during which the conditions of the mice such as tumor size, weight, activity, diet, and the like were measured. At the end of the experiment, the mice were sacrificed, tumor tissues were taken and the tumors were weighed, and major organs and tissues of the mice such as liver, spleen, heart, lung, large intestine, small intestine, and the like were examined.
as §1, with “acute myelogenous leukemia KG-1a” for “K562/ADR”, “TPL-LLV” for “TPL-DDV”
as §1, with “acute myelogenous leukemia KG-1a” for “K562/ADR”, “TPL-DLV” for “TPL-DDV”
as §1, with “acute myelogenous leukemia KG-1a” for “K562/ADR”, “TPL-DLV” for “TPL-DDV”, “0.32” for “0.23”, “0.64” for “0.46”, “examined. […]” for “examined.”

Data set [3] has as its system human acute myelogenous leukemia KG-1a cells. Put plainly: KG-1a subcutaneous xenograft in NOD/SCID mice. The format is in vivo. The settings on record: for growth of KG-1a in mice in vivo (in words): KG-1a xenograft, intragastric 2 times a day, dose-dependent effect; for Tumor volume: KG-1a. As to the method:
as §2
as §1, with “acute myelogenous leukemia KG-1a” for “K562/ADR”, “TPL-LLV” for “TPL-DDV”
as §1, with “acute myelogenous leukemia KG-1a” for “K562/ADR”, “TPL-DLV” for “TPL-DDV”
as §1, with “acute myelogenous leukemia KG-1a” for “K562/ADR”, “TPL-DLV” for “TPL-DDV”, “0.32” for “0.23”, “0.64” for “0.46”

The test system of a further data set is KG-1. Put plainly: MTT growth inhibition, KG-1 cells, 72 h. The data set is classed as cell-based. The settings on record: Homo sapiens, KG-1, MTT. As to the method: (§3) 5000 well-grown leukemia cells were taken and seeded into wells of a 96-well cell culture plate. The medium was 1640 cell medium containing 10% fetal bovine serum. 14-D-Valine-TPL with different concentrations was added, and after being uniformly mixed, the plate was placed in a carbon dioxide (5% CO2) cell incubator, and incubated at 37° C. for 72 hours. The concentration of live cells was then determined using the MTT assay. In this experiment, the cell viability in the control group (without the compound treatment) was set to be 100%, and the cell viability (%) after the action of the compound and the half maximal growth inhibitory concentration of leukemia cells at 72 hours (IC50 value at 72 hours) were calculated.

Another data set deals with THP-1. Put plainly: MTT growth inhibition, THP-1 cells, 72 h. The format is cell-based. The following applies: Homo sapiens, THP-1, MTT. As to the method:
as §3

The next data set concerns pancreatic cancer. The following applies: cited from earlier work.

`CC(C)[C@@H](N)C(=O)N[C@@H](C(=O)O[C@@H]1[C@@]2(C(C)C)O[C@H]2[C@@H]2O[C@]23[C@]12O[C@H]2C[C@H]1C2=C(CC[C@@]13C)C(=O)OC2)C(C)C` [14-D-Valine-D-Valine-TPL, 14-Dextro-Valine-Dextro-Valine-Triptolide]: in data set [1] (14 days), the “growth of K562/ADR cells in mice in vivo (in words)” value is on record as “significantly inhibit the growth”. For the same compound, the Tumor volume was found to be 0 mm^3 in data set [1] (0.23 mg/kg, Overall); 0 mm^3 in data set [1] (0.46 mg/kg, Overall); 0 mm^3 in data set [1] (trifluoroacetate 0.23 mg/kg intragastric 2 times a day, 14 days, individual mice); 0 mm^3 in data set [1] (trifluoroacetate 0.46 mg/kg intragastric 2 times a day, 14 days, individual mice). Further, the Body weight is 19.7 g and 21.2 g and 19.1 g in data set [2] (K562/ADR-bearing mice, 0.23 mg/kg intragastric 2 times a day, listed as DDV, 0.23 mg/kg); 20.5 g and 23.2 g and 19.3 g in data set [2] (K562/ADR-bearing mice, 0.46 mg/kg intragastric 2 times a day, listed as DDV, 0.46 mg/kg).

Regarding `CC(C)[C@]12O[C@H]1[C@@H]1O[C@]13[C@]1(O[C@H]1C[C@H]1C4=C(CC[C@@]13C)C(=O)OC4)[C@@H]2OC(=O)[C@H](Cc1ccc(O)cc1)NC(=O)[C@@H](N)Cc1ccccc1` [14-L-Phenylalanyl-L-tyrosine-TPL, 14-Levo-Phenylalanyl-Levo-tyrosine-Triptolide], the “growth of KG-1a in mice in vivo (in words)” value in data set [3] (14 days) is “significantly inhibit the growth”. Further, the Tumor volume was 0 mm^3 in data set [3] (0.64 mg/kg, Overall); 168.07 mm^3 and 93.12 mm^3 and 131.17 mm^3 in data set [3] (trifluoroacetate 0.32 mg/kg intragastric 2 times a day, 14 days, individual mice, listed as LPT); 0 mm^3 in data set [3] (trifluoroacetate 0.64 mg/kg intragastric 2 times a day, 14 days, individual mice). For the same compound, the Body weight in data set [2] (KG-1a-bearing mice, 0.32 mg/kg intragastric 2 times a day, listed as LPT, 0.32 mg/kg) is 20 g and 20.4 g and 21.4 g; in data set [2] (KG-1a-bearing mice, 0.64 mg/kg intragastric 2 times a day, listed as LPT, 0.64 mg/kg), 19.4 g and 16.1 g and 17.4 g.

On to `CC(C)[C@H](N)C(=O)N[C@@H](C(=O)O[C@@H]1[C@@]2(C(C)C)O[C@H]2[C@@H]2O[C@]23[C@]12O[C@H]2C[C@H]1C2=C(CC[C@@]13C)C(=O)OC2)C(C)C` [14-L-Valine-D-Valine-TPL, 14-Levo-Valine-Dextro-Valine-Triptolide], for which the “growth of KG-1a in mice in vivo (in words)” value in data set [3] (14 days) is “significantly inhibit the growth”. In addition, the Tumor volume is 562.66 mm^3 and 505.81 mm^3 and 1038.41 mm^3 in data set [3] (trifluoroacetate 0.23 mg/kg intragastric 2 times a day, 14 days, individual mice, listed as DLV); 90.96 mm^3 and 265.32 mm^3 and 50.35 mm^3 in data set [3] (trifluoroacetate 0.46 mg/kg intragastric 2 times a day, 14 days, individual mice, listed as DLV). Also, the Body weight in data set [2] (KG-1a-bearing mice, 0.23 mg/kg intragastric 2 times a day, listed as DLV, 0.23 mg/kg) is 19.5 g and 17.8 g and 19.6 g; in data set [2] (KG-1a-bearing mice, 0.46 mg/kg intragastric 2 times a day, listed as DLV, 0.46 mg/kg), 19.6 g and 18.5 g and 18.8 g.

For the compound `CC(C)[C@H](N)C(=O)O[C@@H]1[C@@]2(C(C)C)O[C@H]2[C@@H]2O[C@]23[C@]12O[C@H]2C[C@H]1C2=C(CC[C@@]13C)C(=O)OC2` [14-L-Valine-TPL, 14-Levo-Valine-Triptolide], the IC50 with KG-1 is 8.86 nM; with THP-1 it was 5 nM. For the same compound, the “growth of K562/ADR cells in mice in vivo (in words)” value in data set [1] (14 days) is recorded as “significantly inhibit the growth”. In addition, the Tumor volume in data set [1] (trifluoroacetate 0.2 mg/kg intragastric 2 times a day, 14 days, individual mice, listed as LV) was 73.63 mm^3 and 0 mm^3 and 159.87 mm^3; in data set [1] (trifluoroacetate 0.4 mg/kg intragastric 2 times a day, 14 days, individual mice, listed as LV) it was 30.71 mm^3 and 96.79 mm^3 and 0 mm^3. Besides, the Body weight in data set [2] (K562/ADR-bearing mice, 0.2 mg/kg intragastric 2 times a day, listed as LV, 0.2 mg/kg) was 18 g and 22.2 g and 22 g; in data set [2] (K562/ADR-bearing mice, 0.4 mg/kg intragastric 2 times a day, listed as LV, 0.4 mg/kg), 21.2 g and 20.8 g and 21.1 g.

In the case of `CC(C)[C@]12O[C@H]1[C@@H]1O[C@]13[C@]1(O[C@H]1C[C@H]1C4=C(CC[C@@]13C)C(=O)OC4)[C@@H]2OCOP(=O)(O)O` [Minnelide], the toxic effect result in the data set on pancreatic cancer (at a dosage effective to tumor regression) was “no significant toxic effect”. For the same compound, the survival of mice entry in the data set with pancreatic cancer (nude mouse model of pancreatic cancer) is recorded as “prolonged the survival of mice”.
